For test [1], the system named is MCF-7 breast carcinoma cell line. Kind of test: Growth inhibition of tumor cell lines in vitro (MTT / cell counting). The format is cell-based, human. As to conditions: for IC50: MCF-7, 3 days. The protocol: (§1) The experiments were carried out on a murine lymphocytic leukemia cell line (L1210) and five human tumor cell lines: CEM, HeLa, NCI-H460, SW 620 and MCF-7. The cells were cultured as monolayers and maintained in Dulbecco′s modified Eagle medium (DMEM) supplemented with 10% fetal bovine serum (FBS), 2 mM L-glutamine, 100 U/mL penicillin and 100 μg/mL streptomycin in a humidified atmosphere with 5% CO2 at 37 °C.
(§2) The growth inhibition activity of the compounds was assessed as described previously. The cell lines were inoculated onto a series of standard 96-well microtiter plates on day 0, at 1.5 × 10^4 cells/mL (SW 620, H460) to 2.5 × 10^4 cells/mL (MCF-7, CEM and L1210), depending on the growth of the tumor cell line. Test agents were then added in ten-fold dilutions (10^−8 to 10^−4 M) and the cell cultures were then incubated for 3–4 days with 5% CO2 at 37 °C. Working dilutions of the compounds were freshly prepared on the day of testing.
(§3) After 3 (MCF-7, SW 620, NCI-H460) or 4 days (CEM, L1210), the cell growth rate was evaluated first light microscopically, then by viable cell counting and/or by performing the MTT assay, which detects dehydrogenase activity in live, not dead, cells. The absorbance (A) was measured on a microplate reader at 570 nm. The absorbance is directly proportional to the number of living, metabolically active cells. […] If however, all of the tested concentrations produce PGs exceeding the respective reference level of effect (e.g., PG value of 50), then the highest tested concentration is assigned as the default value, which is preceded by a “>” sign. Minimum two individual experiments were carried out and each test point was performed in quadruplicate.

Test [2] deals with NCI-H460 lung carcinoma cell line. The test is described as above. Type of test: cell-based, human. As to conditions: NCI-H460, 3 days. As to the method: as §1, §2, §3
Test [3] has as its system colon carcinoma HCT 116. Kind of test: Growth inhibition of tumor cell lines in vitro (reference drugs). Type of test: cell-based. As to conditions: colon carcinoma HCT 116 (footnote b, printed in SW 620 column).
In test [4] the test system is L1210 murine lymphocytic leukemia cell line. Kind of test: Growth inhibition of tumor cell lines in vitro (MTT / cell counting). Conditions: Mus musculus, 96 h; L1210, 4 days. Type of test: cell-based. The protocol: as §1, §2, §3
In test [5] the test system is CEM acute lymphoblastic leukemia cell line. The test is described as above. Type of test: cell-based. As to conditions: Homo sapiens, 96 h, 4 days. As to the method: as §1, §2, §3
The test system of test [6] is HeLa cervical carcinoma cell line. The description is as above. Type of test: cell-based. Conditions: Homo sapiens. As to the method: as §1, §2, §3
Test [7] deals with T1, soybean lipoxygenase (LOX) (Glycine max, UniProt P08170).
T1 construct: purchased Sigma-Aldrich
T1 sequence (P08170 1-839): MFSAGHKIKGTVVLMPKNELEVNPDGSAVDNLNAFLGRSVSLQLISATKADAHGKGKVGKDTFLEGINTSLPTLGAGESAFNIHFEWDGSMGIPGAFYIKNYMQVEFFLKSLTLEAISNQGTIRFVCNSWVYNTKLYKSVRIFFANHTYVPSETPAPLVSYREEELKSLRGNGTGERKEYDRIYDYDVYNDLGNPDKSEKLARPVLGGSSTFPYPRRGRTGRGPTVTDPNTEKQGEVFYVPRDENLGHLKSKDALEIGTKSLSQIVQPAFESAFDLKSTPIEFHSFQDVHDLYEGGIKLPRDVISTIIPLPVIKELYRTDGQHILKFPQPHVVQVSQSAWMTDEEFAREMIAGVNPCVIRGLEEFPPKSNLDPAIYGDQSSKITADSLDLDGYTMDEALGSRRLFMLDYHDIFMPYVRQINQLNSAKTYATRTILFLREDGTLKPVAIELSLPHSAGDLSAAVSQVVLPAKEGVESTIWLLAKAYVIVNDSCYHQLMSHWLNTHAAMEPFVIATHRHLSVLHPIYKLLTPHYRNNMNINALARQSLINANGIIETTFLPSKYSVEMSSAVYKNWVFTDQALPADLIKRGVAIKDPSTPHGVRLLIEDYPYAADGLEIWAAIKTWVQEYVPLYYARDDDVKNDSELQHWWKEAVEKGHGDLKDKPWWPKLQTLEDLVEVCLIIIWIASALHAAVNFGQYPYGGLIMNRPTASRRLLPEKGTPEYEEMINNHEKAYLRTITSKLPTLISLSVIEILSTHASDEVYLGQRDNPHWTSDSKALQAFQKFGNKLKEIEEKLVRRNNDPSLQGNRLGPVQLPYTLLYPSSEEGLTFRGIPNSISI
Kind of test: LOX inhibition study in vitro. The format is biochemical. As to conditions: values in parentheses in Table 3. As to the method:
LOX inhibitory assay in vitro was accomplished as described previously. The test compounds (stock solutions 10 mM in DMSO) were incubated at room temperature with sodium linoleate (c = 0.1 mM) and 0.2 mL of LOX enzyme solution (1/9 × 10^−4 m/V in saline). The conversion of sodium linoleate to 13-hydroperoxylinoleic acid was measured at 234 nm and compared with the reference inhibitor. Several concentrations were used for the IC50 determination.

A short description of test [8]: Interaction with the stable radical DPPH (reducing ability). As to the method:
To a solution of DPPH in absolute ethanol the appropriate volume of the compounds (50 or 100 µM final concentrations) dissolved in DMSO was added. The absorbance was recorded at 517 nm after 20 and 60 min at room temperature. The experiments were repeated at least in triplicate and the standard deviation of absorbance was less than 10% of the mean. NDGA was used under the same experimental conditions as a reference compound.
(Loss of DPPH colour is used to gauge radical scavenging.)

The subject of test [9] is human coronavirus (229E). Kind of test: microbe, parasite or virus in culture. Type of test: cell-based. As to conditions: read-out: EC50 (concentration required to reduce virus-induced cytopathogenicity by 50%), HEL cell cultures. Background: Cytopathic effects are the visible damage that an infection or toxin causes in cultured cells.
The test system of test [10] is SW 620 colon carcinoma cell line. Kind of test: Growth inhibition of tumor cell lines in vitro (MTT / cell counting). Type of test: cell-based. As to conditions: Homo sapiens, 72 h; SW 620, 3 days. As to the method: as §1, §2, §3
Test [11] can be described thus: Inhibition of linoleic acid peroxidation (AAPH-induced). As to conditions: 5 × 10^−5 M. The protocol: For initiating the lipid peroxidation free radical AAPH was used. Final solution in the UV cuvette consisted of 10 μL linoleate sodium solution (c = 16 mM), 0.93 mL phosphate buffer (c = 0.05 M), pH 7.4, thermostated at 37 °C. 50 μL AAPH solution (c = 40 mM) and 10 μL of the tested compounds were added. The experiment was performed at 37 °C under air. The oxidation of linoleic acid sodium salt was monitored at 234 nm. The assays were repeated at least in triplicate and the standard deviation of absorbance was less than 10% of the mean. Trolox was used under the same experimental conditions as a reference compound.

Consider seven compounds from publication PMC6273687, “Design, Synthesis and Biological Evaluation of Novel Primaquine-Cinnamic Acid Conjugates of the Amide and Acylsemicarbazide Type” (Molecules, 2016).

Broadly, the IC50 is the concentration at which inhibition is half-maximal. For `COc1cc(NC(C)CCCN)c2ncccc2c1` (centres unmarked) [PQ, primaquine], the IC50 in test [1] (Homo sapiens, MCF7, 72 h) was 28 ± 10 µM; in test [2] (Homo sapiens, 72 h), 30 ± 7 µM; in test [3] (Homo sapiens), 20 ± 6 µM.
Take `O=c1[nH]cc(F)c(=O)[nH]1` [5-FU, 5-fluorouracil, reference compound]: the IC50 in test [2] (Homo sapiens, 72 h) was 3 ± 0.3 µM; in test [4] it was 0.5 ± 0.2 µM; in [5], 18 ± 5 µM; in test [6], 0.54 ± 0.1 µM; in test [3] (Homo sapiens), 4 ± 0.7 µM.
For the compound `COc1cc(NC(C)CCCNC(=O)NNC(=O)/C=C/c2cccc(C(F)(F)F)c2)c2ncccc2c1` (centres unmarked) [7i, (E)-4-(4-(6-Methoxyquinolin-8-ylamino)pentyl)-1-(3-(3-(trifluoromethyl)phenyl)acryloyl)semicarbazide], the IC50 in [7] is 42.5 µM; in test [1] (Homo sapiens, MCF7, 72 h), 2.3 ± 0.2 µM; in test [2] (Homo sapiens, 72 h), 18 ± 3 µM; in [4], 9.4 ± 4.8 µM; in [10], 16 ± 5 µM; in [5] it was 10 ± 1 µM. In test [6], this compound registered an IC50 of 10 ± 1 µM. Moreover, the “DPPH-reducing ability RA (%)” value was determined as 96% in test [8] (1 × 10^−4 M, 20 min); 73% in test [8] (1 × 10^−4 M, 60 min); 71% in [8] (5 × 10^−5 M, 20 min); 100% in test [8] (5 × 10^−5 M, 60 min). Also, in test [9], the EC50 was found to be 7.9 µM. For the same compound, the “LP Inhibition (%)” value in [11] came out at 84%.
For `COc1cc(NC(C)CCCNC(=O)NNC(=O)/C(C)=C/c2ccccc2)c2ncccc2c1` (centres unmarked) [7b, (E)-4-(4-(6-Methoxyquinolin-8-ylamino)pentyl)-1-(2-methyl-3-phenylacryloyl)semicarbazide], the IC50 in test [7] amounted to 100 µM; in test [1] (Homo sapiens, MCF7, 72 h), 16 ± 9 µM; in test [2] (Homo sapiens, 72 h) it was 50 ± 4 µM; in test [4] it was 53 ± 5 µM; in test [10], 9.5 ± 0.9 µM; in test [5], 25 ± 14 µM. Also, inhibition in [6] was half-maximal at 47 ± 6 µM (IC50). For the same compound, the “DPPH-reducing ability RA (%)” value in test [8] (1 × 10^−4 M, 20 min) amounted to 84%; in [8] (1 × 10^−4 M, 60 min) it was 99%; in test [8] (5 × 10^−5 M, 20 min), 42%; in test [8] (5 × 10^−5 M, 60 min) it was 100%. For the same compound, in test [9], the EC50 came out at 15 µM. Moreover, the “LP Inhibition (%)” value in test [11] is listed as 62%.
Take `N.N.[Cl][Pt][Cl]` [CIS, cisplatin, reference compound]: the IC50 in test [1] was 10 ± 1 µM; in [2], 1 ± 0.1 µM; in test [3] it was 7 ± 2 µM.
As for `COc1cc(NC(C)CCCNC(=O)NNC(=O)/C=C/c2ccc3c(c2)OCO3)c2ncccc2c1` (centres unmarked) [7f, (E)-1-(3-(Benzo[d][1,3]dioxo-5-yl)acryloyl)-4-(4-(6-methoxyquinolin-8-ylamino)pentyl)semicarbazide], the IC50 was 55 µM in test [7]; 0.6 ± 0.3 µM in test [1] (Homo sapiens, MCF7, 72 h); 27 ± 3 µM in test [2] (Homo sapiens, 72 h); 4.8 ± 0.2 µM in [4]; 17 ± 5 µM in test [10]; 7.4 ± 2.1 µM in [5]. The compound further displayed an IC50 in test [6] of 31 µM. For the same compound, the “DPPH-reducing ability RA (%)” value in test [8] (1 × 10^−4 M, 20 min) was determined as 74%; in test [8] (1 × 10^−4 M, 60 min) it was 100%; in [8] (5 × 10^−5 M, 20 min), 47%; in test [8] (5 × 10^−5 M, 60 min), 100%. Besides, the EC50 in test [9] amounted to 12.5 µM. Also, the “LP Inhibition (%)” value in test [11] came to 88%.
Take `COc1cc(NC(C)CCCNC(=O)NNC(=O)/C=C/c2ccc(C(F)(F)F)cc2)c2ncccc2c1` (centres unmarked) [7j, (E)-4-(4-(6-Methoxyquinolin-8-ylamino)pentyl)-1-(3-(4-(trifluoromethyl)phenyl)acryloyl)semicarbazide]: the IC50 stood at 35 µM in test [7]; 0.03 ± 0.02 µM in [1] (Homo sapiens, MCF7, 72 h); 34 ± 2 µM in test [2] (Homo sapiens, 72 h); 27 µM in test [4]; 40 ± 5 µM in test [10]; 9.4 ± 5.6 µM in [5]. This compound also yielded an IC50 in test [6] of 28 ± 12 µM. In test [1] (MCF-7), the “fold higher activity than PQ” value amounted to 900 fold. Besides, the “fold higher activity than the anticancer reference drugs” value in test [1] (MCF-7) is reported as 100-to 500 fold. For the same compound, the “DPPH-reducing ability RA (%)” value was 100% in test [8] (1 × 10^−4 M, 20 min); 95% in test [8] (1 × 10^−4 M, 60 min); 42% in test [8] (5 × 10^−5 M, 20 min); 79% in [8] (5 × 10^−5 M, 60 min). Also, the EC50 in test [9] is 9.5 µM. In addition, the “LP Inhibition (%)” value in [11] was found to be 50%.
